In PMC4607267 (Molecular and biochemical parasitology, 2015):

Target: T1, SmGAR (Schistosoma mansoni, UniProt A0A3Q0KNW8)
T1 sequence (A0A3Q0KNW8 5-938): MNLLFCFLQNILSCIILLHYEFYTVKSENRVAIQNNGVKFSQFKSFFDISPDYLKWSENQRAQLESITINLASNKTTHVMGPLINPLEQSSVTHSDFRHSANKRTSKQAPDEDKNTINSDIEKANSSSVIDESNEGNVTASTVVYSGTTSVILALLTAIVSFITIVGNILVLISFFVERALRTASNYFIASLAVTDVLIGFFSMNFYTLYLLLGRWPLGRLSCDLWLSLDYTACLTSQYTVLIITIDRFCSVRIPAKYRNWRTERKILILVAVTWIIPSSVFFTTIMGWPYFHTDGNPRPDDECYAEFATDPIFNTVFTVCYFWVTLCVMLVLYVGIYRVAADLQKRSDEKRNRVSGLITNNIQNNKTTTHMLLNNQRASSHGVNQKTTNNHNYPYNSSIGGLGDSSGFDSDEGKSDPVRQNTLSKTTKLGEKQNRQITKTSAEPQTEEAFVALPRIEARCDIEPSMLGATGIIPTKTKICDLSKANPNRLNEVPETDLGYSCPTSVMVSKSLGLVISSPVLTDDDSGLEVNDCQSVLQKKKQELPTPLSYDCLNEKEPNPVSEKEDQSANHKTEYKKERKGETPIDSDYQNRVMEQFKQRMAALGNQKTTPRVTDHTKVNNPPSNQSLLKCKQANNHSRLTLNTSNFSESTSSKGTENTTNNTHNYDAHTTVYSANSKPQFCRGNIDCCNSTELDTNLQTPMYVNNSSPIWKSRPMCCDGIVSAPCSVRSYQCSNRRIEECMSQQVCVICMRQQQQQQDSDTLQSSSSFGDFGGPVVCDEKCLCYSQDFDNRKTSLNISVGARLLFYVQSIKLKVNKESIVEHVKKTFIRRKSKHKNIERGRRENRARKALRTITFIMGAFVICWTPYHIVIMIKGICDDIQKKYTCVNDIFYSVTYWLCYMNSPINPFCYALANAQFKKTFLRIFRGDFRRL
Experiment: yeast HIS3 reporter growth assay, Alamar Blue
Assay type: cell-based
Settings: read-out: % inhibition at 1 mM

inhibition at 1000 µM: < 50%
SMILES: CN1CCN(CC(=O)N2c3ccccc3C(=O)Nc3cccnc32)CC1 [pirenzepine]
